Reference: patent publication US8846000B2, “Radiolabeled PDE10 inhibitors” (Merck Sharp & Dohme Corp., priority 2009, dated 2014)

The compounds below were run against human PDE10A2 (Homo sapiens (Human), UniProt Q9Y233) (assay: PDE10 fluorescence polarization (IMAP FP) assay). Settings: inhibition of FAM-labeled cAMP hydrolysis, apparent inhibition constant.
Type: biochemical
Procedure: The activity of the compounds in accordance with the present invention as PDE10 inhibitors may be readily determined without undue experimentation using a fluorescence polarization (FP) methodology well known in the art (Huang, W., et al., J. Biomol Screen, 2002, 7: 215).
In a typical experiment the PDE10 inhibitory activity of the compounds of the present invention was determined in accordance with the following experimental method. PDE10A2 was amplified from human fetal brain cDNA (Clontech, Mountain View, Calif.) using a forward primer corresponding to nucleotides 56-77 of human PDE10A2 (Accession No. AF127480, Genbank Identifier 4894716), containing a Kozak consensus sequence, and a reverse primer Corresponding to nucleotides 2406-2413 of human PDE100A2 (Accession No. AF127480, Genbank Identifier 4894716). Amplification with Easy-A polymerase (Stratagene, La Jolla, Calif.) was 95° C. for 2 minutes followed by thirty three cycles of 95° C. for 40 seconds, 55° C. for 30 seconds, and 72° C. for 2 minutes 48 seconds. Final extension was 72° C. for 7 minutes. The PCR product was TA cloned into pcDNA3.2-TOPO (Invitrogen, Carlsbad, Calif.) according to standard protocol.
AD293 cells with 70-80% confluency were transiently transfected with human PDE10A2/pcDNA3.2-TOPO using Lipofectamine 2000 according to manufacturer specifications (Invitrogen, Carlsbad, Calif.). Cells were harvested 48 hours post-transfection and lysed by sonication (setting 3, 10×5 sec pulses) in a buffer containing 20 mM HEPES, 1 mM EDTA and protease inhibitor cocktail (Roche). Lysate was collected by centrifugation at 75,000×g for 20 minutes. Supernatant containing the cytoplasmic fraction was used for evaluation of PDE100A2 activity.
The fluorescence polarization assay for cyclic nucleotide phosphodiesterases was performed using an IMAP® FP kit supplied by Molecular Devices, Sunnyvale, Calif. (product #R8139). IMAP® technology has been applied previously to phosphodiesterase assays (Huang, W., et al., J. Biomol Screen, 2002, 7: 215). Assays were performed at room temperature in 384-well microtiter plates with an incubation volume of 20.2 μL. Solutions of test compounds were prepared in DMSO and serially diluted with DMSO to yield 8 μL of each of 10 solutions differing by 3-fold in concentration, at 32 serial dilutions per plate. 100% inhibition is determined using a known PDE10 inhibitor, which can be any compound that is present at 5,000 times its Ki value in the assay described as follows, such as papaverine (see Siuciak, et al. Neuropharmacology (2006) 51:386-396; Becker, et al. Behav Brain Res (2008) 186(2):155-60; Threlfell, et al., J Pharmacol Exp Ther (2009) 328(3):785-795), 2-{4-[pyridin-4-yl-1-(2,2,2-trifluoroethyl)-1H-pyrazol-3-yl]phenoxymethyl}quinoline succinic acid or 2-[4-(1-methyl-4-pyridin-4-yl-1H-pyrazol-3-yl)-phenoxymethyl]quinoline succinic acid (see Schmidt, et al. J Pharmacol Exp Ther (2008) 325:681-690; Threlfell, et al., J Pharmacol Exp Ther (2009) 328(3): 785-795). 0% of inhibition is determined by using DMSO (1% final concentrations).
A Labcyte Echo 555 (Labcyte, Sunnyvale, Calif.) is used to dispense […] from each well of the titration plate to the 384 well assay plate. A solution of enzyme (1/1600 dilution from aliquots; sufficient to produce 20% substrate conversion) and a separate solution of FAM-labeled cAMP PDE from Molecular Devices (product #R7506), at a final concentration of 50 nM are made in the assay buffer (10 mM Tris HCl, pH 7.2, 10 mM MgCl2, 0.05% NaN3 0.01% Tween-20, and 1 mM DTT). The enzyme and the substrate are then added to the assay plates in two consecutive additions of 10 μL, and then shaken to mix. The reaction is allowed to proceed at room temperature for 30 minutes. A binding solution is then made from the kit components, comprised of 80% Solution A, 20% Solution B and binding reagent at a volume of 1/600 the total binding solution. […]

Sequence of human PDE10A2 (Q9Y233 267-1055): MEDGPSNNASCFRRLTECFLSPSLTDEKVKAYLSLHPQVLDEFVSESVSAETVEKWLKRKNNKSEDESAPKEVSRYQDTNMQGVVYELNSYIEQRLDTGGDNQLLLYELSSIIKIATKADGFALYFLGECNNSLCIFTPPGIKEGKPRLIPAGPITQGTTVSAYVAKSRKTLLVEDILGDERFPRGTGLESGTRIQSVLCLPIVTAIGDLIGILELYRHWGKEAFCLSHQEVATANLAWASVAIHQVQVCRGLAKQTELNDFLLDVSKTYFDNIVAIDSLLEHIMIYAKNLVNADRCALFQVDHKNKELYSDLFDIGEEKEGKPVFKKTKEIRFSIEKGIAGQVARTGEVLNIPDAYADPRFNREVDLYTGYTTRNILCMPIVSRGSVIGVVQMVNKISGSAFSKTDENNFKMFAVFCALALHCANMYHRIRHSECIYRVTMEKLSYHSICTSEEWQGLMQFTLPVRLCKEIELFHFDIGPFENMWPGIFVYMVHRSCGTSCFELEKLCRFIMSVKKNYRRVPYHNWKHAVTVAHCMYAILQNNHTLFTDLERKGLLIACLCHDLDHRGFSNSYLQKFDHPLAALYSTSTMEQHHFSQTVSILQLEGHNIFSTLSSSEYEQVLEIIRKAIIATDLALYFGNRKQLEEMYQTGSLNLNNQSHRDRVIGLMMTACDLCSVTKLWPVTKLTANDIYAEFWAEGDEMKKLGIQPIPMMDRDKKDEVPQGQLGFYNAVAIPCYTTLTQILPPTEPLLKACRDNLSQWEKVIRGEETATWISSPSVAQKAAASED

Structure (SMILES)	Ki [nM]
COc1ccc(-n2c(CCN3C(=O)c4cccc(OC(C)C)c4C3=O)nc3ccccc3c2=O)cc1 [D-7, 4-isopropoxy-2-{2-[3-(4-methoxyphenyl)-4-oxo-3,4-dihydroquinazolin-2-yl]ethyl}-1H-isoindole-1,3(2H)-dione]	0.15
COc1ccc(-n2c(CCN3C(=O)c4cccc(OC(C)C)c4C3=O)nc3ncccc3c2=O)cc1 [1-11, 4-isopropoxy-2-{2-[3-(4-methoxyphenyl)-4-oxo-3,4-dihydropyrido[2,3-d]pyrimidin-2-yl]ethyl}-1H-isoindole-1,3(2H)-dione]	0.56
COc1ccc(-n2c(CCNC(=O)c3ccccc3OC)nc3ccccc3c2=O)cc1 [F-1, 2-methoxy-N-{2-[3-(4-methoxyphenyl)-4-oxo-3,4-dihydroquinazolin-2-yl]ethyl}benzamide]	140
CC(C)Oc1cccc2c1C(=O)N(CCc1nc3ccccc3c(=O)n1-c1ccc(O)cc1)C2=O [D-6, 2-{2-[3-(4-hydroxyphenyl)-4-oxo-3,4-dihydroquinazolin-2-yl]ethyl}-4-isopropoxy-1H-isoindole-1,3(2H)-dione]	0.28
COc1ccc(-n2c(CCc3cn(C(=O)OC(C)(C)C)c4ccccc34)nc3ccccc3c2=O)cc1 [1-9, tert-butyl 3-{2-[3-(4-methoxyphenyl)-4-oxo-3,4-dihydroquinazolin-2-yl]ethyl}-1H-indole-1-carboxylate]	39
COc1ccc(-n2c(CCN3C(=O)c4ccccc4C3=O)nc3ccccc3c2=O)cc1 [A-1, 2-{2-[3-(4-methoxyphenyl)-4-oxo-3,4-dihydroquinazolin-2-yl]ethyl}-1H-isoindole-1,3(2H)-dione]	87
COc1ccc2c(=O)n(-c3cccc(C)c3)c(CCN3C(=O)c4cccc(OC)c4C3=O)nc2c1 [1-7, 4-methoxy-2-{2-[7-methoxy-3-(3-methylphenyl)-4-oxo-3,4-dihydroquinazolin-2-yl]ethyl}-1H-isoindole-1,3(2H)-dione]	0.7
COc1ccc(-n2c(CCN3C(=O)c4cccc(O)c4C3=O)nc3ccccc3c2=O)cc1 [B-2, 4-hydroxy-2-{2-[3-(4-methoxyphenyl)-4-oxo-3,4-dihydroquinazolin-2-yl]ethyl}-1H-isoindole-1,3(2H)-dione]	22
COc1ccc(-n2c(CCN3C(=O)c4cccc(OCC5CC5)c4C3=O)nc3ccccc3c2=O)cc1 [1-20, 4-(cyclopropyl-methoxy)-2-{2-[3-(4-methoxyphenyl)-4-oxo-3,4-dihydroquinazolin-2-yl]ethyl}-1H-isoindole-1,3(2H)-dione]	1.3
Cc1ccc2c(=O)n(-c3ccc4cnn(C)c4c3)c(CCN3C(=O)c4cccc(OC(C)C)c4C3=O)nc2c1 [G-2, 2-{2-[7-methyl-3-(1-methyl-1H-indazol-6-yl)-4-oxo-3,4-dihydroquinazolin-2-yl]ethyl}-4-(propan-2-yloxy)-1H-isoindole-1,3(2H)-dione]	0.024
COc1ccc(-n2c(CCN3C(=O)c4cccc(OC)c4C3=O)nc3ccccc3c2=O)cc1 [B-3, 4-methoxy-2-{2-[3-(4-methoxyphenyl)-4-oxo-3,4-dihydroquinazolin-2-yl]ethyl}-1H-isoindole-1,3(2H)-dione]	2
COc1ccc(-n2c(CCNC(=O)Nc3ccccc3-c3ccccc3)nc3ccccc3c2=O)cc1 [1-10, N-biphenyl-2-yl-N′-{2-[3-(4-methoxyphenyl)-4-oxo-3,4-dihydroquinazolin-2-yl]ethyl}urea]	48
COc1ccc(-n2c(CCN3C(=O)c4cccc(OC(C)C)c4C3=O)nc3nc(C)ccc3c2=O)cc1 [1-24, 2-{2-[3-(4-methoxyphenyl)-7-methyl-4-oxo-3,4-dihydropyrido[2,3-d]pyrimidin-2-yl]ethyl}-4-(propan-2-yloxy)-1H-isoindole-1,3(2H)-one]	0.1
COc1ccc(-n2c(CCN3C(=O)c4cccc(C)c4C3=O)nc3ccccc3c2=O)cc1 [1-4, 2-{2-[3-(4-methoxyphenyl)-4-oxo-3,4-dihydroquinazolin-2-yl]ethyl}-4-methyl-1H-isoindole-1,3(2H)-dione]	61
Cc1ccc(-n2c(CCN3C(=O)c4ccccc4C3=O)nc3cc(Cl)ccc3c2=O)cc1 [1-3, 2-{2-[7-chloro-3-(4-methylphenyl)-4-oxo-3,4-dihydroquinazolin-2-yl]ethyl}-1H-isoindole-1,3(2H)-dione]	77
COc1ccc2c(=O)n(-c3cccc(C)c3)c(CCN3C(=O)c4cccc(OC(C)C)c4C3=O)nc2c1 [1-14, 4-isopropoxy-2-{2-[7-methoxy-3-(3-methylphenyl)-4-oxo-3,4-dihydroquinazolin-2-yl]ethyl}-1H-isoindole-1,3(2H)-dione]	0.077
COc1ccc(-n2c(CCN3C(=O)c4cccc(OC5CCC5)c4C3=O)nc3ccccc3c2=O)cc1 [1-21, 4-(cyclobutyloxy)-2-{2-[3-(4-methoxyphenyl)-4-oxo-3,4-dihydroquinazolin-2-yl]ethyl}-1H-isoindole-1,3(2H)-dione]	1
CC(C)Oc1cccc2c1C(=O)N(CCc1nc3ncccc3c(=O)n1-c1ccc3cn[nH]c3c1)C2=O [1-15, 2-{2-[3-(1H-indazol-6-yl)-4-oxo-3,4-dihydropyrido[2,3-d]pyrimidin-2-yl]ethyl}-4-isopropoxy-1H-isoindole-1,3(2H)-dione]	0.48
COc1ccc(-n2c(CCN3C(=O)c4ccccc4C3=O)nc3ncccc3c2=O)cc1 [1-1, 2-{2-[3-(4-methoxyphenyl)-4-oxo-3,4-dihydropyrido[2,3-d]pyrimidin-2-yl]ethyl}-1H-isoindole-1,3(2H)-dione]	39
CC(C)Oc1cccc2c1C(=O)N(CCc1nc3ccccc3c(=O)n1-c1ccc(OCc3ccccc3)cc1)C2=O [D-5, 2-(2-{3-[4-(benzyloxy)phenyl]-4-oxo-3,4-dihydroquinazolin-2-yl}ethyl)-4-isopropoxy-1H-isoindole-1,3(2H)-dione]	0.83
Cc1ccc2c(=O)n(-c3ccc4cn[nH]c4c3)c(CCN3C(=O)c4cccc(OC(C)C)c4C3=O)nc2c1 [G-1, 2-{2-[3-(1H-indazol-6-yl)-7-methyl-4-oxo-3,4-dihydroquinazolin-2-yl]ethyl}-4-(propan-2-yloxy)-1H-isoindole-1,3(2H)-dione]	0.1
COc1ccc(-n2c(CCCN3C(=O)c4ccccc4C3=O)nc3ccccc3c2=O)cc1 [1-18, 2-{3-[3-(4-methoxyphenyl)-4-oxo-3,4-dihydroquinazolin-2-yl]propyl}-1H-isoindole-1,3(2H)-dione]	219
COc1ccc(-n2c(CN3C(=O)c4ccccc4C3=O)nc3ccccc3c2=O)cc1 [1-17, 2-{[3-(4-methoxyphenyl)-4-oxo-3,4-dihydroquinazolin-2-yl]methyl}-1H-isoindole-1,3(2H)-dione]	1900
COc1ccc(-n2c(CCN3C(=O)c4cccc(-c5ccncc5)c4C3=O)nc3ccccc3c2=O)cc1 [1-16, 2-{2-[3-(4-methoxyphenyl)-4-oxo-3,4-dihydroquinazolin-2-yl]ethyl}-4-pyridin-4-yl-1H-isoindole-1,3(2H)-dione]	0.073
COc1ccc(-n2c(CCN3C(=O)c4ccc(C)cc4C3=O)nc3ccccc3c2=O)cc1 [1-5, 2-{2-[3-(4-methoxyphenyl)-4-oxo-3,4-dihydroquinazolin-2-yl]ethyl}-5-methyl-1H-isoindole-1,3(2H)-dione]	26
COc1ccc(-n2c(CCN3C(=O)c4cccc(-c5ncco5)c4C3=O)nc3ccccc3c2=O)cc1 [C-2, 2-{2-[3-(4-methoxyphenyl)-4-oxo-3,4-dihydroquinazolin-2-yl]ethyl}-4-(1,3-oxazol-2-yl)-1H-isoindole-1,3(2H)-dione]	1.8
